Several values for one entry are separate records, joined by “and”; a condition that tells them apart may be missing. Equal entries are not always repeated. Toxic doses and inconclusive results are not listed.
Tested on: B6C3F1 mice, Lewis lung carcinoma iv, survival T/C
Test: NCI In Vivo Anticancer Drug Screen. Data for tumor model Lewis Lung Carcinoma (intravenous) in B6C3F1 mice
Conditions: endpoint: median survival time, higher = longer survival
Outline: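 Mice carrying transplanted tumors received test compound; survival in the treated group was divided by that of the vehicle-treated control group to give the T/C value.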

[1] = dose: 12.5 mg/kg/injection, schedule: Q01DX009 (ip), vehicle: saline
[2] = dose: 25.0 mg/kg/injection, schedule: Q01DX009 (ip), vehicle: saline
[3] = dose: 50.0 mg/kg/injection, schedule: Q01DX009 (ip), vehicle: saline
[4] = dose: 100.0 mg/kg/injection, schedule: Q01DX009 (ip), vehicle: saline
[5] = dose: 200.0 mg/kg/injection, schedule: Q01DX009 (ip), vehicle: saline
[6] = dose: 6.25 mg/kg/injection, schedule: Q01DX009 (ip), vehicle: saline
[7] = dose: 25.0 mg/kg/injection, schedule: Q01DX009 (ip), vehicle: water

Which results are given for COC(=O)c1ccoc1?
T/C [1]: 100 % of control; T/C [2]: 111 % of control; T/C [3]: 97 % of control; T/C [4]: 108 % of control; T/C [5]: 117 % of control

For NNC(=S)N/N=C/c1ccccn1, which T/C (dose: 1.56 mg/kg/injection, schedule: Q01DX009 (ip), vehicle: suspension in saline) is on record?
Its T/C is 102 % of control.

What about the T/C (dose: 3.12 mg/kg/injection, schedule: Q01DX009 (ip), vehicle: suspension in saline) of the same molecule?
The T/C was 86 % of control.

What about the T/C [6] of the same molecule?
The T/C was 115 % of control.

And the T/C (dose: 6.25 mg/kg/injection, schedule: Q01DX009 (ip), vehicle: suspension in saline)?
The T/C was 98 % of control.

What about the T/C [1] of the same molecule?
Its T/C is 115 % of control.

And the T/C (dose: 12.5 mg/kg/injection, schedule: Q01DX009 (ip), vehicle: suspension in saline)?
The T/C was 108 % of control.

And the T/C [2]?
Its T/C is 154 % of control.

What about the T/C (dose: 25.0 mg/kg/injection, schedule: Q01DX009 (ip), vehicle: suspension in saline) of the same molecule?
The T/C was 101 % of control.

For CO[C@@]12[C@H](COC(N)=O)C3=C(C(=O)C(C)=C(N)C3=O)N1C[C@@H]1N[C@@H]12, which T/C (dose: 0.12 mg/kg/injection, schedule: Q01DX009 (ip), vehicle: saline) is on record?
The T/C was 101 % of control.

And the T/C (dose: 0.25 mg/kg/injection, schedule: Q01DX009 (ip), vehicle: saline)?
The T/C was 103 % of control and 109 % of control.

What about the T/C (dose: 0.5 mg/kg/injection, schedule: Q01DX009 (ip), vehicle: saline) of the same molecule?
Its T/C is 118 % of control.

And the T/C (dose: 1.0 mg/kg/injection, schedule: Q01DX009 (ip), vehicle: saline)?
The T/C was 107 % of control.

Which T/C [1] does the source give for Nc1nc(F)nc2c1ncn2C1OC(COP(=O)(O)O)C(O)C1O (configuration not stated) here?
Its T/C is 105 % of control.

And the T/C [2]?
Its T/C is 102 % of control.

And the T/C [3]?
Its T/C is 103 % of control.

What about the T/C [4] of the same molecule?
Its T/C is 114 % of control.

And the T/C [5]?
Its T/C is 87 % of control.

For CCCC(=O)OCc1cc(=O)n(C)c2c3c4c(cc12)c(C)cc(=O)n4CO3, which T/C (dose: 3.12 mg/kg/injection, schedule: Q01DX009 (ip), vehicle: Klucel (hydroxypropylcellulose) (HPC)) is on record?
Its T/C is 91 % of control.

What about the T/C (dose: 6.25 mg/kg/injection, schedule: Q01DX009 (ip), vehicle: Klucel (hydroxypropylcellulose) (HPC)) of the same molecule?
The T/C was 97 % of control.

And the T/C (dose: 12.5 mg/kg/injection, schedule: Q01DX009 (ip), vehicle: Klucel (hydroxypropylcellulose) (HPC))?
The T/C was 92 % of control.

And the T/C (dose: 50.0 mg/kg/injection, schedule: Q01DX009 (ip), vehicle: Klucel (hydroxypropylcellulose) (HPC))?
The T/C was 118 % of control.

For O=[N+]([O-])c1c(O)c(CNCCCO)cc(CNCCCO)c1O, which T/C [6] is on record?
The T/C was 100 % of control.

What about the T/C [1] of the same molecule?
The T/C was 113 % of control.

And the T/C [2]?
Its T/C is 102 % of control.

With O=C(NO)c1cc(O)c(O)c(O)c1 as the molecule, how does the T/C [7] read?
The T/C was 100 % of control.

What about the T/C (dose: 50.0 mg/kg/injection, schedule: Q01DX009 (ip), vehicle: water) of the same molecule?
The T/C was 98 % of control.

What about the T/C (dose: 100.0 mg/kg/injection, schedule: Q01DX009 (ip), vehicle: water) of the same molecule?
The T/C was 100 % of control.

And the T/C (dose: 200.0 mg/kg/injection, schedule: Q01DX009 (ip), vehicle: water)?
The T/C was 110 % of control.

And the T/C (dose: 400.0 mg/kg/injection, schedule: Q01DX009 (ip), vehicle: water)?
The T/C was 93 % of control.

O=c1[nH]c(=O)n(C2CC(O)C(CO)O2)cc1F (configuration not stated) was tested. Which T/C (dose: 147.0 mg/kg/injection, schedule: Q04DX003 (ip), vehicle: saline) did it give?
Its T/C is 102 % of control.

What about the T/C (dose: 210.0 mg/kg/injection, schedule: Q04DX003 (ip), vehicle: saline) of the same molecule?
The T/C was 118 % of control.

Which results are given for CC(=O)C(=O)O.CC(=O)C(=O)O.[NH-]C1CCCCC1[NH-].[Pt+2] (configuration not stated)?
T/C (dose: 3.12 mg/kg/injection, schedule: Q01DX009 (ip), vehicle: other): 98 % of control; T/C (dose: 6.25 mg/kg/injection, schedule: Q01DX009 (ip), vehicle: other): 109 % of control; T/C (dose: 12.5 mg/kg/injection, schedule: Q01DX009 (ip), vehicle: other): 96 % of control

Which T/C (dose: 1.56 mg/kg/injection, schedule: Q01DX009 (ip), vehicle: water) does the source give for COc1ccc(-c2csc(=[N+]3CCCCC3)s2)cc1 here?
Its T/C is 108 % of control.

What about the T/C (dose: 3.12 mg/kg/injection, schedule: Q01DX009 (ip), vehicle: water) of the same molecule?
The T/C was 104 % of control.

And the T/C (dose: 6.25 mg/kg/injection, schedule: Q01DX009 (ip), vehicle: water)?
The T/C was 104 % of control.

What about the T/C (dose: 12.5 mg/kg/injection, schedule: Q01DX009 (ip), vehicle: water) of the same molecule?
Its T/C is 94 % of control.

What about the T/C [7] of the same molecule?
Its T/C is 95 % of control.

O=C(CCCN1CCC(C(O)c2ccc(F)cc2)CC1)c1ccc(F)cc1 (configuration not stated) was tested. Which T/C (dose: 3.12 mg/kg/injection, schedule: Q01DX009 (ip), vehicle: saline with Tween-80) did it give?
The T/C was 102 % of control.

And the T/C (dose: 6.25 mg/kg/injection, schedule: Q01DX009 (ip), vehicle: saline with Tween-80)?
The T/C was 101 % of control.

And the T/C (dose: 12.5 mg/kg/injection, schedule: Q01DX009 (ip), vehicle: saline with Tween-80)?
The T/C was 105 % of control.

From PubChem BioAssay AID276 (DTP/NCI, 2004)
